Results reported in ChEMBL document CHEMBL4507305, “Data for DCP probe TP-024” (2021).

Columns and labels:
[1] = biological target: Cyclin-dependent kinase-like 2 (Homo sapiens) (UniProt Q92772); details: Compound concentration 1000.0 nM
[2] = biological target: Macrophage colony-stimulating factor 1 receptor (Homo sapiens) (UniProt P07333); details: Compound concentration 1000.0 nM
[3] = biological target: Tyrosine-protein kinase JAK2 (Homo sapiens) (UniProt O60674); details: Compound concentration 1000.0 nM
[4] = biological target: Serine/threonine-protein kinase Chk2 (Homo sapiens) (UniProt O96017); details: Compound concentration 1000.0 nM
[5] = biological target: Serine/threonine-protein kinase SIK3 (Homo sapiens) (UniProt Q9Y2K2); details: Compound concentration 1000.0 nM
[6] = biological target: Phosphatidylinositol 5-phosphate 4-kinase type-2 beta (Homo sapiens) (UniProt P78356); details: Compound concentration 1000.0 nM
[7] = biological target: Serine/threonine-protein kinase pim-1 (Homo sapiens) (UniProt P11309); details: Compound concentration 1000.0 nM
[8] = biological target: MAP/microtubule affinity-regulating kinase 3 (Homo sapiens) (UniProt P27448); details: Compound concentration 1000.0 nM
[9] = biological target: Ribosomal protein S6 kinase alpha-2 (Homo sapiens) (UniProt Q15349); details: Compound concentration 1000.0 nM
[10] = biological target: RAC-alpha serine/threonine-protein kinase (Homo sapiens) (UniProt P31749); details: Compound concentration 1000.0 nM
[11] = biological target: Cyclin-dependent kinase 4 (Homo sapiens) (UniProt P11802); details: Compound concentration 1000.0 nM
[12] = biological target: Ephrin type-A receptor 7 (Homo sapiens) (UniProt Q15375); details: Compound concentration 1000.0 nM
[13] = biological target: Ephrin type-B receptor 4 (Homo sapiens) (UniProt P54760); details: Compound concentration 1000.0 nM
[14] = test system: Phosphatidylinositol 4,5-bisphosphate 3-kinase catalytic subunit alpha isoform (Homo sapiens), P42336 [I800L]; details: Compound concentration 1000.0 nM
[15] = biological target: 5-hydroxytryptamine receptor 7 (Homo sapiens) (UniProt P34969); details: Compound concentration 10.0 uM
[16] = biological target: 5-hydroxytryptamine receptor 2A (Homo sapiens) (UniProt P28223); details: Compound concentration 10.0 uM
[17] = biological target: Tyrosine-protein kinase ABL2 (Homo sapiens) (UniProt P42684); details: Compound concentration 1000.0 nM
[18] = biological target: Insulin receptor (Homo sapiens) (UniProt P06213); details: Compound concentration 1000.0 nM
[19] = biological target: Serine/threonine-protein kinase PAK 2 (Homo sapiens) (UniProt Q13177); details: Compound concentration 1000.0 nM
[20] = biological target: cAMP-dependent protein kinase catalytic subunit beta (Homo sapiens) (UniProt P22694); details: Compound concentration 1000.0 nM
[21] = biological target: Histamine H4 receptor (Homo sapiens) (UniProt Q9H3N8); details: Compound concentration 10.0 uM
[22] = biological target: Alpha-1B adrenergic receptor (Homo sapiens) (UniProt P35368); details: Compound concentration 10.0 uM
[23] = biological target: Dual serine/threonine and tyrosine protein kinase (Homo sapiens) (UniProt Q6XUX3); details: Compound concentration 1000.0 nM
[24] = biological target: Casein kinase I isoform gamma-2 (Homo sapiens) (UniProt P78368); details: Compound concentration 1000.0 nM
[25] = biological target: Mitogen-activated protein kinase 4 (Homo sapiens) (UniProt P31152); details: Compound concentration 1000.0 nM
[26] = biological target: High affinity nerve growth factor receptor (Homo sapiens) (UniProt P04629); details: Compound concentration 1000.0 nM
[27] = test system: Hepatocyte growth factor receptor (Homo sapiens), P08581 [M1250T]; details: Compound concentration 1000.0 nM
[28] = biological target: Sodium-dependent serotonin transporter (Homo sapiens) (UniProt P31645); details: Compound concentration 10.0 uM
[29] = biological target: Phosphatidylinositol 4,5-bisphosphate 3-kinase catalytic subunit alpha isoform (Homo sapiens) (UniProt P42336); details: Compound concentration 1000.0 nM
[30] = biological target: D(1B) dopamine receptor (Homo sapiens) (UniProt P21918); details: Compound concentration 10.0 uM
[31] = biological target: Tyrosine-protein kinase ITK/TSK (Homo sapiens) (UniProt Q08881); details: Compound concentration 1000.0 nM
[32] = biological target: GABA-A receptor; anion channel (Rattus norvegicus) (UniProt O09028+P15431+P18506+P18508+P19969+P20236+P23574+P23576+P28471+P28473+P30191+P62813+P63079+P63138+Q91ZM7+Q9ES14); details: Compound concentration 10.0 uM
[33] = biological target: Serine/threonine-protein kinase LATS2 (Homo sapiens) (UniProt Q9NRM7); details: Compound concentration 1000.0 nM
[34] = biological target: Tyrosine-protein kinase Tec (Homo sapiens) (UniProt P42680); details: Compound concentration 1000.0 nM
[35] = biological target: MAP kinase-interacting serine/threonine-protein kinase 1 (Homo sapiens) (UniProt Q9BUB5); details: Compound concentration 1000.0 nM
[36] = test system: Tyrosine-protein kinase ABL1 (Homo sapiens), P00519 [Q252H]; details: Compound concentration 1000.0 nM
[37] = biological target: Serine/threonine-protein kinase DCLK3 (Homo sapiens) (UniProt Q9C098); details: Compound concentration 1000.0 nM
[38] = biological target: D(4) dopamine receptor (Homo sapiens) (UniProt P21917); details: Compound concentration 10.0 uM
[39] = test system: Receptor-type tyrosine-protein kinase FLT3 (Homo sapiens), P36888 [D835Y]; details: Compound concentration 1000.0 nM
[40] = biological target: Casein kinase II subunit alpha' (Homo sapiens) (UniProt P19784); details: Compound concentration 1000.0 nM
[41] = biological target: Activin receptor type-1B (Homo sapiens) (UniProt P36896); details: Compound concentration 1000.0 nM
[42] = biological target: Tyrosine-protein kinase BTK (Homo sapiens) (UniProt Q06187); details: Compound concentration 1000.0 nM
[43] = biological target: Serine/threonine-protein kinase Nek4 (Homo sapiens) (UniProt P51957); details: Compound concentration 1000.0 nM
[44] = biological target: 5-hydroxytryptamine receptor 1A (Homo sapiens) (UniProt P08908); details: Compound concentration 10.0 uM

Chain of Ephrin type-A receptor 7 (Homo sapiens) (Q15375 28-998 limits assumed): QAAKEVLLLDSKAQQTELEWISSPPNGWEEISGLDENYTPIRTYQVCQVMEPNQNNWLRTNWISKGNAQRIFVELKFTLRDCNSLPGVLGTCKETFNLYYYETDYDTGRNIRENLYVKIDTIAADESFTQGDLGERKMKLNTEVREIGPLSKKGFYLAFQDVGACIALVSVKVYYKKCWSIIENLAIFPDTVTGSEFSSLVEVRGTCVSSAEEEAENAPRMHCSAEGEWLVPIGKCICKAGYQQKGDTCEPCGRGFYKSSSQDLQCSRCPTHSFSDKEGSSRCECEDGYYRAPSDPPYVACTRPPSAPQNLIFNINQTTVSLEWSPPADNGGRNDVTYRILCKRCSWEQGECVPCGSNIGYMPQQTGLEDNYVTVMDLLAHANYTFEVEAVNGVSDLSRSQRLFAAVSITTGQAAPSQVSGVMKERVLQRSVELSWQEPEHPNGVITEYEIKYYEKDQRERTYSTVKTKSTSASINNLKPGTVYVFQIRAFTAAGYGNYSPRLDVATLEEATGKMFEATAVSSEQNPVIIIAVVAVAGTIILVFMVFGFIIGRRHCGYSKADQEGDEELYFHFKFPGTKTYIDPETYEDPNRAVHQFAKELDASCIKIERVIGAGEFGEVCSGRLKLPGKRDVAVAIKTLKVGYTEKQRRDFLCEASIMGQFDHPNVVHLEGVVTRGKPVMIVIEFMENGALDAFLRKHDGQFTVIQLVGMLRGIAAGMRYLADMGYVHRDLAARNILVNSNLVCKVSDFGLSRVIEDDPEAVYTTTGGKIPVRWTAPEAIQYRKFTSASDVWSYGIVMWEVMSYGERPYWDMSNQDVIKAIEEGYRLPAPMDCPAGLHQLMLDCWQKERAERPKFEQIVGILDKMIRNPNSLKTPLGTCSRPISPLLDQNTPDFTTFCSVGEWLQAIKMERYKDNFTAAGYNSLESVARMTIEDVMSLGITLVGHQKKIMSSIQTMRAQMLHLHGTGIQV
Chain of 5-hydroxytryptamine receptor 2A (Homo sapiens) (P28223 whole entry): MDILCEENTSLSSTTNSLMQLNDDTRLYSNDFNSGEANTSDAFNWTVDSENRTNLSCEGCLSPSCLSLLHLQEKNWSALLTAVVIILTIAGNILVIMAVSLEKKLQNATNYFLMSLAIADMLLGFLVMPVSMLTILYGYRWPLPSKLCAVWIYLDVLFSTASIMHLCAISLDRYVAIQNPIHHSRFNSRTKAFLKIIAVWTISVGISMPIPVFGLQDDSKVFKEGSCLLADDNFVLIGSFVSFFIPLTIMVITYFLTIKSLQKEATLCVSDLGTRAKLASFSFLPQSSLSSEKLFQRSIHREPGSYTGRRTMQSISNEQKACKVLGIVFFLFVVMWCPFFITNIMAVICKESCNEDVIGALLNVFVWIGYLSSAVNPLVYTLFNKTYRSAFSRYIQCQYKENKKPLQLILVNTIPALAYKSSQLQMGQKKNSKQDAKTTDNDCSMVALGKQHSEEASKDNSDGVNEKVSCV
Chain of Ribosomal protein S6 kinase alpha-2 (Homo sapiens) (Q15349 whole entry): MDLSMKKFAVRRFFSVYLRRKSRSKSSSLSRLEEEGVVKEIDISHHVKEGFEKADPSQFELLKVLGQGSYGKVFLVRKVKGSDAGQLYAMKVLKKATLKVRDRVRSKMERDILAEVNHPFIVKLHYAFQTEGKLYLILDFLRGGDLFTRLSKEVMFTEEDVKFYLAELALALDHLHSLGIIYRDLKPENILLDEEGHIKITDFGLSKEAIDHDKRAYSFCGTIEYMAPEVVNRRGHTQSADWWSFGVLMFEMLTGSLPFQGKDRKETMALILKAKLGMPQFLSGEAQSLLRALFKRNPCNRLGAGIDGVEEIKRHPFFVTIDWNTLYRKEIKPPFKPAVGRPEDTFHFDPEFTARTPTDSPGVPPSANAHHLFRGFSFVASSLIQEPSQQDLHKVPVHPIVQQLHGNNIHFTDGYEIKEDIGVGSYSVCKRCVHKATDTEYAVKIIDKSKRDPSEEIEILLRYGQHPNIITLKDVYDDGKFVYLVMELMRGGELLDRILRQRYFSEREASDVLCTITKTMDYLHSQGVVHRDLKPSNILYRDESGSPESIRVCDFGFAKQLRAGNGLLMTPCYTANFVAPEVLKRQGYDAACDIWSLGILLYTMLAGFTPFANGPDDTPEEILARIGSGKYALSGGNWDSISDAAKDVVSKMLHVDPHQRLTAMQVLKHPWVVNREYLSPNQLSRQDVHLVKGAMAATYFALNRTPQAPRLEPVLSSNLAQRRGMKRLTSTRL
Chain of MAP kinase-interacting serine/threonine-protein kinase 1 (Homo sapiens) (Q9BUB5 whole entry, looked up): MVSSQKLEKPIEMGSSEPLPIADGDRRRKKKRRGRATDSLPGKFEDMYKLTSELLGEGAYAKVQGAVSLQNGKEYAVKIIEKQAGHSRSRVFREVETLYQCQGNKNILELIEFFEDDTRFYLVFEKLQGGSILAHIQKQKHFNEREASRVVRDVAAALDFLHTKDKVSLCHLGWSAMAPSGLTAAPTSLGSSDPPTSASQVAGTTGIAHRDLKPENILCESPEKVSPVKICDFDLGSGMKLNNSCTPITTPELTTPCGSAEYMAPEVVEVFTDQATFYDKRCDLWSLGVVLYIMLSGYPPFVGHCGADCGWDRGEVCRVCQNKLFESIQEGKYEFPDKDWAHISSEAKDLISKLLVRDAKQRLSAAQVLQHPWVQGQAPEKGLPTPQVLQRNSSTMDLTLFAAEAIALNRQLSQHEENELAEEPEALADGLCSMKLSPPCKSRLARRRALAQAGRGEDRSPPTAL
Chain of Alpha-1B adrenergic receptor (Homo sapiens) (P35368 whole entry): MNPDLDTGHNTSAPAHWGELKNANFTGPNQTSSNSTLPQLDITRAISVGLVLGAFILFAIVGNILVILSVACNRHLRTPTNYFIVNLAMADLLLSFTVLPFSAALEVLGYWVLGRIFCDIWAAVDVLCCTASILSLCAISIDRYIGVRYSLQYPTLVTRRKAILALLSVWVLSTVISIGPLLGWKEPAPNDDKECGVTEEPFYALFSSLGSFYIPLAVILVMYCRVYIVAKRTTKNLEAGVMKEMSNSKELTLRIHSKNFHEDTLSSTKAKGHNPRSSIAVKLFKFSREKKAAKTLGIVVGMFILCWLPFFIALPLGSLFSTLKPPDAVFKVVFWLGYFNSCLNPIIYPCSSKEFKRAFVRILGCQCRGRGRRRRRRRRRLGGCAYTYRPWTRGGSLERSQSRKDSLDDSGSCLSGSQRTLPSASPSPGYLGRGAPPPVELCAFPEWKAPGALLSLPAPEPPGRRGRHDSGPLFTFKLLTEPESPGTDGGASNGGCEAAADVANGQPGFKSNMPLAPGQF
Chain of Phosphatidylinositol 4,5-bisphosphate 3-kinase catalytic subunit alpha isoform (Homo sapiens), P42336 [I800L] (P42336 whole entry I800L, canonical isoform): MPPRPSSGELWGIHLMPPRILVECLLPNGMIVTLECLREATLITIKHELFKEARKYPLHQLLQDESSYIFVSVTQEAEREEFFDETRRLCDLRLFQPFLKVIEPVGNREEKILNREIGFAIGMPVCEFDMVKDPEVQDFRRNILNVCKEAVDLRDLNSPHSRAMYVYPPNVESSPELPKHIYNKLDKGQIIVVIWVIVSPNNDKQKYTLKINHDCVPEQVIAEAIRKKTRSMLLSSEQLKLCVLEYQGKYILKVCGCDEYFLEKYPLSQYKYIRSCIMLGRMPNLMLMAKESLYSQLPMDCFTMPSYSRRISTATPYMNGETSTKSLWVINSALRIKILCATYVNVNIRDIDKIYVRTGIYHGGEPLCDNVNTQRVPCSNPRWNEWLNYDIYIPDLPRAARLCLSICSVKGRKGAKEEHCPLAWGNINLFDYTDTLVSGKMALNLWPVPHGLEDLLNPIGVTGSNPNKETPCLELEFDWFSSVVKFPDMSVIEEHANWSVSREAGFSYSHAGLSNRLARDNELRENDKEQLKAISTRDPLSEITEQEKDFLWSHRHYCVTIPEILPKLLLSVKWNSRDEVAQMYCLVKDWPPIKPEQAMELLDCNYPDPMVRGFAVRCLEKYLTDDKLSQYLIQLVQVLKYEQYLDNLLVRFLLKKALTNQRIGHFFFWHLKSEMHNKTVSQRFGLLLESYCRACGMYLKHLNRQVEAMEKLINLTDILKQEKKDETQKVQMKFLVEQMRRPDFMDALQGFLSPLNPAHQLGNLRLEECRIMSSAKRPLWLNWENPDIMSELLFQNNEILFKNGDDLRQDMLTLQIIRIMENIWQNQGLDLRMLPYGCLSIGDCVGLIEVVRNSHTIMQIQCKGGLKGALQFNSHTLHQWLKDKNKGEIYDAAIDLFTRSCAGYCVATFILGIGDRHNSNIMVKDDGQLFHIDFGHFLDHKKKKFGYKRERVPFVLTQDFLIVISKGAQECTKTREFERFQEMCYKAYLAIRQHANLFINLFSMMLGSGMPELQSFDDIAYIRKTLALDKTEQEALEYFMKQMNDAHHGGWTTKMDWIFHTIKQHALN
Chain of Serine/threonine-protein kinase Nek4 (Homo sapiens) (P51957 whole entry, looked up): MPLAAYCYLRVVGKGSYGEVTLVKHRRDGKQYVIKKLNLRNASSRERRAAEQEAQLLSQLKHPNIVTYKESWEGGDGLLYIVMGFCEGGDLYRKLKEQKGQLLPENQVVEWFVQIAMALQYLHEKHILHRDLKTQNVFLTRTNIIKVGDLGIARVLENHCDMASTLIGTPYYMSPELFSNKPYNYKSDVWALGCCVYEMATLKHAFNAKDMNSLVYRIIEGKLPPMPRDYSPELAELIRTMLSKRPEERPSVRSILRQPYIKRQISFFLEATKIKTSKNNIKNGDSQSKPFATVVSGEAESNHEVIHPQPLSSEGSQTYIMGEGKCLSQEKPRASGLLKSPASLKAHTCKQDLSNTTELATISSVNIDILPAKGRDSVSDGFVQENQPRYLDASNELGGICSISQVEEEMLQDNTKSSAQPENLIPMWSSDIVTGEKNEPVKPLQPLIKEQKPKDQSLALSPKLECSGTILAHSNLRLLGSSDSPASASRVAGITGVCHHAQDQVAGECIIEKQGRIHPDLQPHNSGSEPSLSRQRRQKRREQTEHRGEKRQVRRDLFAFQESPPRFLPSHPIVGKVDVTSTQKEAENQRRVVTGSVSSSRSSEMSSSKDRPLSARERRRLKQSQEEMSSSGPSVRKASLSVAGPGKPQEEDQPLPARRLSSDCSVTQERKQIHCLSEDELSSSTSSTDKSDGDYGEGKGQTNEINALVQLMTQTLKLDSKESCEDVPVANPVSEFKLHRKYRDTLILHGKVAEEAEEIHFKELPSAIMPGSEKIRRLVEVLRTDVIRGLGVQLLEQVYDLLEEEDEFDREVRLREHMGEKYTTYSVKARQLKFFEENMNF

Cc1cc(-n2nc(Cc3cc(F)cc(C(F)(F)F)c3)nc2C)ccc1C(N)=O [TP-024]
inactive: residual activity [1] 100% | residual activity [2] 100% | residual activity [3] 100% | residual activity [4] 100% | residual activity [5] 83% | residual activity [6] 100% | residual activity [7] 100% | residual activity [8] 100% | residual activity [9] 100% | residual activity [10] 94% | residual activity [11] 100% | residual activity [12] 98% | residual activity [13] 100% | residual activity [14] 70% | inhibition [15] 21.4% | inhibition [16] 10.5% | residual activity [17] 100% | residual activity [18] 99% | residual activity [19] 75% | residual activity [20] 100% | inhibition [21] 1.73% | inhibition [22] 6.84% | residual activity [23] 97% | residual activity [24] 79% | residual activity [25] 100% | residual activity [26] 97% | residual activity [27] 80% | inhibition [28] -1.29% | residual activity [29] 100% | inhibition [30] 14.3% | residual activity [31] 93% | inhibition [32] 14.4% | residual activity [33] 100% | residual activity [34] 100% | residual activity [35] 100% | residual activity [36] 94% | residual activity [37] 94% | inhibition [38] -2.09% | residual activity [39] 100% | residual activity [40] 91% | residual activity [41] 93% | residual activity [42] 100% | residual activity [43] 100% | inhibition [44] -4.42%

Cc1nc(Cc2cccc(C(F)(F)F)c2)sc1-c1ccc(C(N)=O)nc1 [TP-024n]
inactive: residual activity [1] 92% | residual activity [2] 100% | residual activity [3] 100% | residual activity [4] 100% | residual activity [5] 75% | residual activity [6] 88% | residual activity [7] 96% | residual activity [8] 86% | residual activity [9] 100% | residual activity [10] 82% | residual activity [11] 100% | residual activity [12] 100% | residual activity [13] 100% | residual activity [14] 56% | inhibition [15] 16.4% | inhibition [16] 20.4% | residual activity [17] 100% | residual activity [18] 95% | residual activity [19] 60% | residual activity [20] 92% | inhibition [21] 7.74% | inhibition [22] 24.6% | residual activity [23] 78% | residual activity [24] 82% | residual activity [25] 100% | residual activity [26] 64% | residual activity [27] 92% | inhibition [28] -7.18% | residual activity [29] 88% | inhibition [30] 13.8% | residual activity [31] 100% | inhibition [32] 9.72% | residual activity [33] 90% | residual activity [34] 100% | residual activity [35] 100% | residual activity [36] 87% | residual activity [37] 100% | inhibition [38] -2.16% | residual activity [39] 92% | residual activity [40] 96% | residual activity [41] 75% | residual activity [42] 100% | residual activity [43] 100% | inhibition [44] -2.04%
